Measured values reported in patent publication US20100028872A1, “Methods for the Detection of Cancer” (priority 2006, published 2010).

Assays:
[1] = tested on: SW48 colorectal tumor cell line; assay: 5Aza-dC dose optimisation: re-expression of silenced tumor suppressor genes on the expression array; assay type: cell-based; details: 5 μM 5Aza-dC for at least two cell doubling times, with TSA (500 nM)
Description: To determine the optimal 5Aza-dC dosage for robust detection of transcriptional reactivation on the microarray without excessive toxicity to the treated cells, the re-expression of 5 tumor suppressor genes, p16^INK4a, MLH1, MGMT, RARβ, and Timp-3, was examined at different doses of 5Aza-dC. The five TSG are well characterized as hypermethylated with associated silencing in the SW48 colorectal tumor cell line, which has a similar cell doubling time to the RCC lines (Wheeler et al. (1999) Proc. Natl. Acad. Sci., 96:10296-301; Esteller et al. (1999) Cancer Res., 59:793-97; Paz et al. (2003) Cancer Res., 63:1114-21; Herman et al. (1995) Cancer Res., 55:4525-30; Bachman et al. (1999) Cancer Res., 59:798-802). RNA was extracted from SW48 cell cultures after treatment with 1, 5, or 10 μM 5Aza-dC and TSA (500 nM). RT-PCR was then performed and the product labeled and hybridized to the expression array. […] The 5Aza-dC treatment was combined with TSA because there is good evidence that the processes of methylation and deacetylation interact to silence transcription, although TSA may have less synergistic effect at the relatively higher 5 μM 5Aza-dC dose employed than when combined with lower doses of 5Aza-dC (Cameron et al. (1999) Nat. Genet., 21:103-7; Wade et al. (2001) Oncogene, 20:3166-73). […]

[2] = tested on: 786-0 clear cell renal tumor line; assay: Expression microarray of genes upregulated after 5Aza-dC and TSA treatment; assay type: cell-based, human; details: 5 μM 5Aza-dC and 500 nM TSA, 14,802 gene microarray
Description: (§1) 5Aza-dC (Sigma, St. Louis, Mo.) was dissolved in phosphate buffered saline (PBS) as a 5 mM stock solution, and stored in aliquots at −80° C. TSA (Wako, Richmond, Va.) was dissolved in absolute ethanol as a 330 μM stock solution, and stored at −20° C. The 4 renal cell lines were split to low density and exposed to 5Aza-dC at a final concentration of 5 μM, again 24 hours after the beginning of treatment and, if necessary, further treatment until the cells had undergone at least 2 doublings. The cells were also treated with TSA at a final concentration of 500 nM during the 24 hours prior to harvest for RNA extraction. Untreated (mock) cells were cultured over an identical period of time with an equivalent volume of PBS and, for the final 24 hours, with an equivalent volume of EtOH.
(§2) Total RNA was isolated from drug-treated and untreated cultured cells using TRIZOL reagent (Invitrogen, Carlsbad, Calif.) and purified with the RNAeasy Mini Kit (Quiagen, Valencia, Calif.) combined with DNAase treatment. The RNA quality was confirmed by the ratio of 28S and 18S ribosomal RNA after agarose gel electrophoresis. Twenty μg of total RNA was reverse transcribed using oligo (dT)24 primer and Superscript II reverse transcriptase (Invitrogen, Carlsbad, Calif.) for 1.5 hours at 42° C.
(§3) For each cell line, both treated and untreated cDNA was labeled with Cy3 or Cy5 (Amersham Biosciences, Piscataway, N.J.) and then hybridized to separate human 15k oligoarrays (MWG-Biotech Inc, High Point, N.C.) according to the manufacturer's recommendation for 18 hours at 42° C. The microarrays were processed and spotted in the DNA Microarray Facility at FCCC. The Gene list, Gene ID and Template files can be viewed at research.fccc.edu/facilities/microarray. In addition, microarray hybridization was performed with the opposite labels (dye flip) from each cell line. The hybridized slides were scanned using a GMS 428 Scanner (Affymetrix, Santa Clara, Calif.) to generate high-resolution images for both Cy3 and Cy5 channels. Image analysis was performed using the ImaGene software (BioDiscovery, Inc, El Segundo, Calif.).
(§4) The genes corresponding to each oligonucleotide spotted on the array were identified using an optimized segmentation algorithm. […] Data were analyzed using the GeneSight software (BioDiscovery, Inc, El Segundo, Calif.) which includes background subtraction, data normalization (Lowess transformation), calculation of ratios, and statistical analysis of replicate spots and slides.
(§5) Up-regulation of the 14,802 gene microarray was analyzed in 4 RCC lines treated with 5 μM of 5Aza-dC and 500 nM of TSA. […] The promoter region of each gene was also analyzed for the presence of a CpG island with the characteristics described by Takai and Jones (Takai et al. (2002) Proc. Natl. Acad. Sci., 99:3740-5). […]

[3] = tested on: ACHN papillary renal tumor cell line; assay: as above; assay type: cell-based, human; details: 5 μM 5Aza-dC and 500 nM TSA, 14,802 gene microarray
Description: as §1, §2, §3, §4, §5

[4] = tested on: HRC51 clear cell renal tumor cell line; assay: as above; assay type: cell-based, human; details: 5 μM 5Aza-dC and 500 nM TSA, 14,802 gene microarray
Description: as §1, §2, §3, §4, §5

[5] = tested on: HRC59 papillary renal tumor cell line; assay: as above; assay type: cell-based, human; details: 5 μM 5Aza-dC and 500 nM TSA, 14,802 gene microarray
Description: as §1, §2, §3, §4, §5

SMILES: Nc1ncn([C@H]2C[C@H](O)[C@@H](CO)O2)c(=O)n1 [5Aza-dC, 5Aza-2deoxycytidine]
- toxicity as assessed by comparison of cell morphology and cell death between control and treated cells [1]: minimal toxicity
- re-expression of 5 tumor suppressor genes (p16INK4a, MLH1, MGMT, RARβ, Timp-3) ([1]; SW48 cells): re-expression of the 5 TSG
- genes upregulated at least 3-fold compared to the untreated cells [2]: 170 genes
- genes upregulated at least 3-fold compared to the untreated cells [3]: 111 genes
- genes upregulated at least 3-fold compared to the untreated cells [4]: 112 genes
- genes upregulated at least 3-fold compared to the untreated cells [5]: 178 genes
